The structures appear in SMILES notation.

What all share (test): cells
Common to all, as to design: CellTiter-Glo 2.0 luminescence proliferation/viability assay, single agents, human tumour cell line panel

The subject of test [1] is KP-3. To be noted: 96 h; single agent; read-out: IC50 SMACm. The gist of the method:
(§1)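 Human tumour cell lines were seeded into assay plates and held at 37°C with 5% CO2 for twenty-four hours, then exposed in triplicate to rising concentrations of the SMAC mimetic, from 4.5 nM to 10 μM, with DMSO as control. After 96 h, viability was read as CellTiter-Glo2.0 luminescence to derive single-agent IC50 values.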

The subject of test [2] is RKO. To be noted: Homo sapiens, RKO, 96 h; single agent; read-out: IC50 SMACm. The procedure, abridged: as §1
In test [3] the test system is NCI-H2030. The following applies: Homo sapiens, NCI-H2030, 96 h; single agent; read-out: IC50 SMACm. The gist of the method:
as §1

The subject of test [4] is Gp2D. The following applies: GP2d, 96 h; single agent; read-out: IC50 SMACm. The gist of the method: as §1
The subject of test [5] is HCT-116. To be noted: Homo sapiens, HCT-116, 96 h; single agent; read-out: IC50 SMACm. The gist of the method:
as §1

The subject of test [6] is SNU254. To be noted: 96 h; single agent; read-out: IC50 SMACm. The gist of the method:
as §1

In test [7] the test system is EBC-1. The following applies: Homo sapiens, EBC-1, 96 h; single agent; read-out: IC50 SMACm. The gist of the method: as §1
The test system of test [8] is NCI-H358. To be noted: Homo sapiens, NCI-H358, 96 h; single agent; read-out: IC50 SMACm. The gist of the method:
as §1

Test [9] deals with NCI-H520. The following applies: Homo sapiens, NCI-H520, 96 h; single agent; read-out: IC50 SMACm. The procedure, abridged: as §1
Test [10] relates to KE-39. To be noted: 96 h; single agent; read-out: IC50 SMACm. The gist of the method:
as §1

Test [11] concerns LIM2550. To be noted: 96 h; single agent; read-out: IC50 SMACm. The gist of the method: as §1
The subject of test [12] is SW48. The following applies: Homo sapiens, SW48, 96 h; single agent; read-out: IC50 SMACm. The procedure, abridged: as §1
Test [13] relates to SNU283. The following applies: 96 h; single agent; read-out: IC50 SMACm. The procedure, abridged:
as §1

The test system of test [14] is KP-4. The following applies: Homo sapiens, KP-4, 96 h; single agent; read-out: IC50 SMACm. The procedure, abridged: as §1
The subject of test [15] is LoVo. To be noted: Homo sapiens, LoVo, 96 h; single agent; read-out: IC50 SMACm. The procedure, abridged: as §1

Consider `CN[C@@H](C)C(=O)Nc1ccc(-c2c(-c3cccnc3OC)nc3cc(C)ccn23)c(C#Cc2ccc3c(C)nccc3c2)n1` [SMACm, BI 891065], for which the IC50 turned out to be 4.62 µM in test [1]; 5.07 µM in test [2]; 4.29 µM in test [3]; 3.62 µM in test [4]; 4.06 µM in [5]; 1.76 µM in [6]. The IC50 was 2.23 µM in [7]; more than 10 µM in test [8]; 4.01 µM in [9]; 3.86 µM in test [10]; 2.08 µM in [11]; 5.9 µM in test [12]. Besides, the IC50 in [13] turned out to be 3.78 µM; in test [14] it was 4.16 µM; in test [15], 4.76 µM.
